Measured values taken from patent US20230000842A1, “METHODS OF TREATING CARTILAGE DISORDERS THROUGH INHIBITION OF CLK AND DYRK” (SAMUMED, LLC, priority 2019, published 2023).

Key:
[1] = test system: primary human mesenchymal stem cells (hMSCs); assay: Chondrogenesis screening using primary human mesenchymal stem cells; format: cell-based; conditions: Homo sapiens, Mesenchymal stem cells, hMSC chondrogenesis; for EC50: concentration required to induce 50% levels of chondrogenesis with TGF-β3 as positive control, read-out: Conc (nM) of 50% TGF-β3 activity; for Emax: maximum activity relative to TGF-β3 (10 ng/mL) positive control, read-out: Max. Activity as % TGF-β3 activity
How it was run: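 Derived values are EC50 for 50% chondrogenesis, maximal activity and the dose giving it. These come from nodule area in passage 3–6 primary hMSCs, expressed as fold change over the mean of 3 same-plate DMSO wells, 2–3 replicates per concentration. TGF-β3 served as positive control.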

[2] = test system: Wnt pathway activity (SW480 colon carcinoma cells stably expressing the Sp5-Luc reporter); assay: Wnt pathway activity screening assay (Sp5-Luc reporter gene assay); conditions: Homo sapiens, SW480, Table 4; SW480 cells stably expressing Sp5-Luc reporter, 10-point dose-response from 10 μM, 36 to 48 hours
CLK2 kinase = CLK2 kinase (Homo sapiens, UniProt P49760); assay: CLK2 kinase activity assay (Z-lyte FRET); format: biochemical; conditions: Z-lyte Ser/Thr 6 peptide, 60 μM ATP, 1 h at room temperature;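 further: FRET read-out as coumarin to fluorescein emission ratio, unphosphorylated peptide as 0% and phosphorylated peptide as 100% controls, duplicate reactions, non-linear regression fit of dose-response curves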
CLK3 kinase = CLK3 kinase (Homo sapiens, UniProt P49761); assay: CLK3 kinase activity assay (Z-lyte FRET); format: biochemical; conditions: Z-lyte Ser/Thr 18 peptide, 156 μM ATP, 1 h at room temperature;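 further: kinase activity read as coumarin/fluorescein emission ratio by FRET, unphosphorylated peptide as 0% and phosphorylated peptide as 100% control, values from non-linear regression of dose-response curves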
Sequence of CLK3 kinase (P49761 whole entry): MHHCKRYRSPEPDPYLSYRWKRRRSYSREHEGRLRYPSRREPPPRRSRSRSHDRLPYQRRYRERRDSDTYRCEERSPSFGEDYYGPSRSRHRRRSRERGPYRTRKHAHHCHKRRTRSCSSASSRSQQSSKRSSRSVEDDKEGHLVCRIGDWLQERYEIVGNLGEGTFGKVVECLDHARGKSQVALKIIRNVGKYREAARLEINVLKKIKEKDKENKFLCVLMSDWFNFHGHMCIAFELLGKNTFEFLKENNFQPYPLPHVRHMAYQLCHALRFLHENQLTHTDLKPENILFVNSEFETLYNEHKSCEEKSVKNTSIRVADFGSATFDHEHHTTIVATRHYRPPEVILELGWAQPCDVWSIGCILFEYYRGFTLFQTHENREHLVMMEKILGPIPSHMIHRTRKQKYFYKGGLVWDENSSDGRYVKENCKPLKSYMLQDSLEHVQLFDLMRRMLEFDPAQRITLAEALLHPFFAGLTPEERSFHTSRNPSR
Experimental: This is a non-radioactive assay using fluorescence resonance energy transfer (FRET) between coumarin and fluorescein to detect kinase activity which is represented as a ratio of coumarin emission/fluorescein emission.
The mixture was allowed to incubate with the representative compounds for one hour at room temperature. All reactions were performed in duplicate. Unphosphorylated (“0% Control”) and phosphorylated (“100% control”) forms of Ser/Thr 18 served as control reactions. Additionally, an 11-point dose-response curve of Staurosporine (1 μM top) was run to serve as a positive compound control.
After incubation, Development Reagent A was diluted in Development Buffer then added to the reaction and allowed to further incubate for one hour at room temperature.
Dose-response curves were generated and inhibitory concentration (IC50) values were calculated using non-linear regression curve fit in the Dotmatics' Studies Software (Bishops Stortford, UK).

Sequence of CLK2 kinase (P49760 whole entry): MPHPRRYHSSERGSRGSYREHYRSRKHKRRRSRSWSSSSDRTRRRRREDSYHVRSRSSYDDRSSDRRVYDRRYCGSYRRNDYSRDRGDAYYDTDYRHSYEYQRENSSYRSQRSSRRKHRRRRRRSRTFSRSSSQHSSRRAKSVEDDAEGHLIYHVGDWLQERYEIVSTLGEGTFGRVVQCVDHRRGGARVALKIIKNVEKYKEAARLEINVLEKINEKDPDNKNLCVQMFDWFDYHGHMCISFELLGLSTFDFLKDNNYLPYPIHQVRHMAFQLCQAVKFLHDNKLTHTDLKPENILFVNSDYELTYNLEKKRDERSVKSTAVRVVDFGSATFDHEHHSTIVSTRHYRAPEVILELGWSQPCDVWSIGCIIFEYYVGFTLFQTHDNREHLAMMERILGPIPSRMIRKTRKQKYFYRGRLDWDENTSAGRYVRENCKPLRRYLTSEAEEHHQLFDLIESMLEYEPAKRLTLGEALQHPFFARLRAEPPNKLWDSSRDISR

Structure (SMILES)	EC50 [1] [nM]	EC50 [2] [nM]	EC50 (CLK2 kinase) [nM]	EC50 (CLK3 kinase) [nM]	Emax [1] [%]
Fc1ccccc1-c1cncc2[nH]c(-c3n[nH]c4ncc(-c5cn[nH]c5)cc34)cc12 [compound 339]	–	375	7	99	51.1
Fc1ccccc1-c1nccc2[nH]c(-c3n[nH]c4cnc(-c5cn[nH]c5)cc34)cc12 [compound 340]	10	30.5	10	785	89.2
c1cncc(-c2ccc3[nH]nc(-c4cc5c(-c6cccnc6)ccnc5[nH]4)c3n2)c1 [compound 344]	100	> 10000	3	9840	59.2
Cc1ccncc1-c1cnc2[nH]nc(-c3cc4c(-c5cccnc5)cncc4[nH]3)c2c1 [compound 345]	–	2250	3	107	17.4
Cc1ccncc1-c1ccc2[nH]nc(-c3cc4c(-c5cccnc5)cncc4[nH]3)c2n1 [compound 346]	10	> 10000	4	133	149
CCC(=O)Nc1cncc(-c2cnc3[nH]nc(-c4cc5c(-c6cccnc6)cccc5[nH]4)c3c2)c1 [compound 348]	10	180	3	538	671
CC(C)C(=O)Nc1cncc(-c2ccc3[nH]nc(-c4cc5c(-c6cccnc6)cncc5[nH]4)c3c2)c1 [compound 349]	–	260	2	37	34.5
CC(C)C(=O)Nc1cncc(-c2cc3c(-c4cc5c(-c6cccnc6)cccc5[nH]4)n[nH]c3cn2)c1 [compound 350]	10	275	11	1900	201
CCCCC(=O)Nc1cncc(-c2cc3c(-c4cc5c(-c6cccnc6)ccnc5[nH]4)n[nH]c3cn2)c1 [compound 351]	10	> 10000	4	9840	52.8
CC(C)(C)CC(=O)Nc1cncc(-c2cnc3[nH]nc(-c4cc5c(-c6cccnc6)cncc5[nH]4)c3c2)c1 [compound 353]	–	> 10000	3	85	37.3
O=C(Nc1cncc(-c2ccc3[nH]nc(-c4cc5c(-c6cccnc6)cncc5[nH]4)c3c2)c1)C1CCCC1 [compound 356]	–	1350	6	78	45.5
O=C(Nc1cncc(-c2ccc3[nH]nc(-c4cc5c(-c6cccnc6)nccc5[nH]4)c3c2)c1)c1ccccc1 [compound 357]	–	421	3	43	19.4
CC(C)Nc1cncc(-c2ccc3[nH]nc(-c4cc5c(-c6cccnc6)cccc5[nH]4)c3c2)c1 [compound 359]	10	100	6	962	226
CC(C)Nc1cncc(-c2cnc3[nH]nc(-c4cc5c(-c6cccnc6)ccnc5[nH]4)c3c2)c1 [compound 362]	10	> 10000	4	292	135
CC(C)Nc1cncc(-c2cc3c(-c4cc5c(-c6cccnc6)ccnc5[nH]4)n[nH]c3cn2)c1 [compound 363]	10	> 10000	8	9840	77
CCNCc1cncc(-c2ccc3[nH]nc(-c4cc5c(-c6cccnc6)ccnc5[nH]4)c3c2)c1 [compound 365]	–	> 10000	13	443	28.7
CCNCc1cncc(-c2cnc3[nH]nc(-c4cc5c(-c6cccnc6)ccnc5[nH]4)c3c2)c1 [compound 366]	10	> 10000	4	74	91.8
CN(C)Cc1cncc(-c2ccc3[nH]nc(-c4cc5c(-c6cccnc6)cccc5[nH]4)c3n2)c1 [compound 368]	–	415	4	102	35.9
c1cncc(-c2ccnc3[nH]c(-c4n[nH]c5cnc(-c6cncc(CN7CCCC7)c6)cc45)cc23)c1 [compound 369]	–	> 10000	9	102	16.7
FC1(F)CCN(Cc2cncc(-c3ccc4[nH]nc(-c5cc6c(-c7cccnc7)ccnc6[nH]5)c4c3)c2)C1 [compound 370]	–	523	6	101	20.3
Cn1cc(-c2ccc3[nH]nc(-c4cc5c(-c6cccnc6)cncc5[nH]4)c3c2)cn1 [compound 375]	–	250	6	100	65.2
Nc1cncc(-c2ccc3[nH]nc(-c4cc5c(-c6ccncc6)nccc5[nH]4)c3c2)c1 [compound 377]	–	658	7	113	76.8
Nc1cncc(-c2cnc3[nH]nc(-c4cc5c(-c6ccncc6)nccc5[nH]4)c3c2)c1 [compound 378]	30	> 10000	2	50	53.5
Nc1cncc(-c2cnc3[nH]nc(-c4cc5c(-c6ccncc6)cncc5[nH]4)c3c2)c1 [compound 379]	–	> 10000	4	69	31.5
Nc1cncc(-c2ccc3[nH]nc(-c4cc5c(-c6ccncc6)ccnc5[nH]4)c3n2)c1 [compound 382]	–	> 10000	4	63	26.9
CCCC(=O)Nc1cncc(-c2ccc3[nH]nc(-c4cc5c(-c6ccncc6)cncc5[nH]4)c3c2)c1 [compound 383]	–	> 10000	3	46	124
CC(C)C(=O)Nc1cncc(-c2cc3c(-c4cc5c(-c6ccncc6)nccc5[nH]4)n[nH]c3cn2)c1 [compound 385]	–	> 10000	12	389	32.1

More lines, main results first:

EC50 [1] [nM]	EC50 [2] [nM]	EC50 (CLK2 kinase) [nM]	EC50 (CLK3 kinase) [nM]	Structure (SMILES)	Emax [1] [%]
10	1980	5	222	Fc1ccccc1-c1nccc2[nH]c(-c3n[nH]c4cnc(-c5cncc(CN6CCCC6)c5)cc34)cc12 [compound 338]	69.4
–	> 10000	4	90	c1cncc(-c2ccc3[nH]nc(-c4cc5c(-c6cccnc6)ccnc5[nH]4)c3c2)c1 [compound 342]	16.7
100	1340	3	468	c1cncc(-c2cc3c(-c4cc5c(-c6cccnc6)cncc5[nH]4)n[nH]c3cn2)c1 [compound 343]	76.4
–	> 10000	3	9840	CC(C)CC(=O)Nc1cncc(-c2cnc3[nH]nc(-c4cc5c(-c6cccnc6)ccnc5[nH]4)c3c2)c1 [compound 352]	43.5
100	330	12	537	O=C(Nc1cncc(-c2cc3c(-c4cc5c(-c6cccnc6)cccc5[nH]4)n[nH]c3cn2)c1)C1CC1 [compound 354]	308
–	202	8	151	O=C(Nc1cncc(-c2cnc3[nH]nc(-c4cc5c(-c6cccnc6)cccc5[nH]4)c3c2)c1)C1CCC1 [compound 355]	41.3
–	> 10000	7	71	O=C(Nc1cncc(-c2ccc3[nH]nc(-c4cc5c(-c6cccnc6)cncc5[nH]4)c3c2)c1)c1ccccc1 [compound 358]	68.5
–	670	4	330	CC(C)Nc1cncc(-c2ccc3[nH]nc(-c4cc5c(-c6cccnc6)cncc5[nH]4)c3c2)c1 [compound 360]	41.9
–	> 10000	5	164	CC(C)Nc1cncc(-c2ccc3[nH]nc(-c4cc5c(-c6cccnc6)ccnc5[nH]4)c3c2)c1 [compound 361]	45.5
–	255	10	139	CC(C)Nc1cncc(-c2ccc3[nH]nc(-c4cc5c(-c6cccnc6)ccnc5[nH]4)c3n2)c1 [compound 364]	47.2
–	3850	11	408	FC1(F)CCN(Cc2cncc(-c3ccc4[nH]nc(-c5cc6c(-c7cccnc7)cncc6[nH]5)c4n3)c2)C1 [compound 371]	23.3
–	> 10000	2	69	c1cncc(-c2ccnc3[nH]c(-c4n[nH]c5ncc(-c6cncc(CN7CCCCC7)c6)cc45)cc23)c1 [compound 372]	43.9
–	> 10000	4	156	c1cncc(-c2cncc3[nH]c(-c4n[nH]c5ncc(-c6cncnc6)cc45)cc23)c1 [compound 373]	24.1
–	> 10000	19	9840	c1cncc(-c2ccnc3[nH]c(-c4n[nH]c5cnc(-c6cncnc6)cc45)cc23)c1 [compound 374]	49.6
